From patent publication US20010007866A1, “TREATMENT OF PRURITUS WITH VITAMIN D AND ANALOGS THEREOF” (priority 1995, published 2001)
Several values for one entry are separate records, joined by “and”; a condition that tells them apart may be missing. Equal values may be shown once.

What was measured:
[1] = tested on: pruritus of sunburn; test: Topical application to pruritus of sunburn (subject two); format: in vivo, human
Method: A corn oil solution of vitamin D3 was prepared by adding 1 gram of vitamin D3 to 20 ml corn oil with mixing for approximately 1 hour followed by brief heating to approximately 45° C. until dissolved. One ml of this solution was mixed with 47 ml corn oil and 2 ml isopropyl myristate to obtain a final concentration of vitamin D3 of 1000 μg/ml.
Subject two developed a sunburn on the back and experienced severe pruritus. […] The pruritus abated completely about one-half hour after these applications.

[2] = tested on: pruritus caused by poison ivy; test: Topical application to poison ivy rash, pruritic score on 100 mm visual analog scale (subject one); format: in vivo, human
Method: Testing Procedure: Subject one contracted poison ivy rash and tested the various preparations above. Preparations were evaluated by the subject after application to an area of rash approximately 1-10 square centimeters. Comparisons were made of antipruritic effect by marking on a 100 mm visual analog scale consisting of a plain line with the left end labeled “None” and the right end labeled “Maximal”. The subject was instructed to mark the scale at a point which they felt corresponded to the level of itchiness that they were feeling at the treatment site at the appropriate time. The samples were coded so that the subject was not aware of what a given sample was and they were not told if they were expected to have an effect. They carried out the evaluation unaided, applying the samples in any order they chose except where side-by-side comparisons were made as indicated in the tables. From the marked scale the pruritic score was determined as the number of mm from the left side of the scale to the subject's mark. Thus a higher value indicates a high level or pruritus and a low value indicates a low level to no pruritus.
The patient and test procedures were as described in example 3. The results of tests using oil-based formulations are in tables 2a through 2c.
The patient and test procedures were as described in example 3. The results of tests using oil-based formulations are in Table 3.
Serial dilutions of Vita Moist Cream were made from an initial 5 ml quantity of Vita Moist Cream by adding successive 5 ml quantities of the diluent, Care Deeply Cream, to the starting formulation and subsequent 5 ml aliquots of successive dilutions as follows:
After coding with numbers 1-6 as above, the preparations were randomly sorted and again coded […] and tested two at a time in alphabetical order. […] The minimal effective concentration in this formulation appears to be between 1.25 and 2.5 μg/ml.

## C=C1CC[C@H](O)C/C1=C/C=C1\CCC[C@]2(C)[C@@H]([C@H](C)CCCC(C)C)CC[C@@H]12 [Vitamin D3, cholecalciferol]
[1]; 1000 μg/ml in corn oil
  antipruritic effect (in words): immediately and completely alleviated
[1]; after 1000 μg/ml in corn oil
  time until the pruritus returned: one and one-half
[2]; 869 μg/ml in Eucerin lotion, compared with Eucerin plus corn oil control
  antipruritic effect (in words, no scores recorded): stopped the pruritus instantly and completely
[2]; Keri lotion as vehicle, Table 1b
  antipruritic effect (in words): rapid and complete antipruritic effect
[2]; Keri lotion with added isopropyl myristate, 52 μg/ml, time 0 min
  pruritic score (100 mm visual analog scale): 77 mm
[2]; Keri lotion with added isopropyl myristate, 52 μg/ml, time 1 min
  pruritic score (100 mm visual analog scale): 35 mm
[2]; Keri lotion with added isopropyl myristate, 52 μg/ml, time 5 min
  pruritic score (100 mm visual analog scale): 0 mm
[2]; Keri lotion with added isopropyl myristate, 52 μg/ml, time 10 min
  pruritic score (100 mm visual analog scale): 0 mm
[2]; Keri lotion with added isopropyl myristate, 502 μg/ml, time 0 min
  pruritic score (100 mm visual analog scale): 80 mm
[2]; Keri lotion with added isopropyl myristate, 502 μg/ml, time 1 min
  pruritic score (100 mm visual analog scale): 0 mm
[2]; Keri lotion with added isopropyl myristate, 502 μg/ml, time 5 min
  pruritic score (100 mm visual analog scale): 0 mm
[2]; Keri lotion with added isopropyl myristate, 502 μg/ml, time 10 min
  pruritic score (100 mm visual analog scale): 0 mm
[2]; Keri lotion with added isopropyl myristate, 869 μg/ml, time 0 min
  pruritic score (100 mm visual analog scale): 82 mm
[2]; Keri lotion with added isopropyl myristate, 869 μg/ml, time 1 min
  pruritic score (100 mm visual analog scale): 0 mm
[2]; Keri lotion with added isopropyl myristate, 869 μg/ml, time 5 min
  pruritic score (100 mm visual analog scale): 0 mm
[2]; Keri lotion with added isopropyl myristate, 869 μg/ml, time 10 min
  pruritic score (100 mm visual analog scale): 0 mm
[2]; Keri lotion, 10 μg/ml, no isopropyl myristate, time 0 min, single tests
  pruritic score (100 mm visual analog scale): 78 mm and 80 mm
[2]; Keri lotion, 10 μg/ml, no isopropyl myristate, time 1 min, single tests
  pruritic score (100 mm visual analog scale): 0 mm
[2]; Keri lotion, 10 μg/ml, no isopropyl myristate, time 5 min, single tests
  pruritic score (100 mm visual analog scale): 0 mm
[2]; Keri lotion, 10 μg/ml, no isopropyl myristate, time 10 min, single tests
  pruritic score (100 mm visual analog scale): 0 mm
[2]; Keri lotion, 10 μg/ml, with isopropyl myristate, time 0 min, single tests
  pruritic score (100 mm visual analog scale): 80 mm and 77 mm
[2]; Keri lotion, 10 μg/ml, with isopropyl myristate, time 5 min, single tests
  pruritic score (100 mm visual analog scale): 0 mm
[2]; Keri lotion, 10 μg/ml, with isopropyl myristate, time 10 min, single tests
  pruritic score (100 mm visual analog scale): 0 mm
[2]; Keri lotion, 10 μg/ml, mean of four tests (with and without isopropyl myristate), time 0 min
  pruritic score, Mean: 79 mm
[2]; Keri lotion, 10 μg/ml, mean of four tests (with and without isopropyl myristate), time 1 min
  pruritic score, Mean: 0 mm
[2]; Keri lotion, 10 μg/ml, mean of four tests (with and without isopropyl myristate), time 5 min
  pruritic score, Mean: 0 mm
[2]; Keri lotion, 10 μg/ml, mean of four tests (with and without isopropyl myristate), time 10 min
  pruritic score, Mean: 0 mm
[2]; Keri lotion, 521 μg/ml, no isopropyl myristate, time 0 min
  pruritic score (100 mm visual analog scale): 80 mm
[2]; Keri lotion, 521 μg/ml, no isopropyl myristate, time 1 min
  pruritic score (100 mm visual analog scale): 81 mm
[2]; Keri lotion, 521 μg/ml, no isopropyl myristate, time 5 min
  pruritic score (100 mm visual analog scale): 0 mm
[2]; Keri lotion, 521 μg/ml, no isopropyl myristate, time 10 min
  pruritic score (100 mm visual analog scale): 0 mm
[2]; Keri lotion, concentrations from 10 through 869 μg/ml, Table 1c
  antipruritic effect (in words): effective in rapidly and effectively relieving pruritus
[2]; Vita Moist Cream diluted with Care Deeply Cream, 1.25 μg/ml and 0.5 μg/ml
  antipruritic effect (in words): some antipruritic effect but the effect was not complete nor was it rapid and sustained
[2]; Vita Moist Cream diluted with Care Deeply Cream, 2.5 and 5 μg/ml
  antipruritic effect (in words): rapid and complete alleviation of pruritus
[2]; corn oil vehicle, 1000 μg/ml, mean of two tests compared to vehicle control
  antipruritic effect (in words): no detectable antipruritic effect
[2]; corn oil, 1000 μg/ml, mean of two tests, time 0 min
  pruritic score, Mean: 81 mm
[2]; corn oil, 1000 μg/ml, mean of two tests, time 1 min
  pruritic score, Mean: 81 mm
[2]; corn oil, 1000 μg/ml, mean of two tests, time 5 min
  pruritic score, Mean: 70 mm
[2]; corn oil, 1000 μg/ml, mean of two tests, time 10 min
  pruritic score, Mean: 59 mm
[2]; corn oil, 1000 μg/ml, time 0 min, tests 1 and 2
  pruritic score (100 mm visual analog scale): 80 mm and 81 mm
[2]; corn oil, 1000 μg/ml, time 1 min, tests 1 and 2
  pruritic score (100 mm visual analog scale): 80 mm and 81 mm
[2]; corn oil, 1000 μg/ml, time 5 min, tests 1 and 2
  pruritic score (100 mm visual analog scale): 81 mm and 58 mm
[2]; corn oil, 1000 μg/ml, time 10 min, tests 1 and 2
  pruritic score (100 mm visual analog scale): 60 mm and 58 mm
[2]; non-aqueous vehicle
  lowest concentration found to have an anti-pruritic effect: 521 µg/mL
[2]; petroleum jelly vehicle, 521 μg/ml
  antipruritic effect (in words): an antipruritic effect
[2]; petroleum jelly, 521 μg/ml, time 0 min
  pruritic score (100 mm visual analog scale): 72 mm
[2]; petroleum jelly, 521 μg/ml, time 1 min
  pruritic score (100 mm visual analog scale): 11 mm
[2]; petroleum jelly, 521 μg/ml, time 5 min
  pruritic score (100 mm visual analog scale): 10 mm
[2]; petroleum jelly, 521 μg/ml, time 10 min
  pruritic score (100 mm visual analog scale): 9 mm
[2]; suspension of water and a dispersed phase
  effective concentration: 12.5 µg/mL
[2]; water-based emulsion formulation
  lowest effective concentration: 2.5 µg/mL
